Laboratory results as given in paper PMC9809337, “Discovery of HCD3514 as a potent EGFR inhibitor against C797S mutation in vitro and in vivo” (Journal of Cancer, 2023).
Where two headings read alike, the source gives them in different places.

Columns and labels:
[1] = test system: BaF3-EGFR^19del/T790M/C797S cells; experiment: Cell proliferation assay (CCK8/SRB); details: 72 h, read-out: IC50, antiproliferation activity
[2] = test system: BaF3-EGFR^19del/T790M/C797S mouse xenograft tumors; type: in vivo; details: for phosphorylation of EGFR and Erk in tumors (Western blot): tumor tissues collected 2 h after last treatment
Protocol: Western blotting was performed as described previously. Cells were collected by trypsin and then lysed with SDS lysis buffer. Tumor tissues were homogenized in RIPA buffer on ice, followed by centrifugation at 12,000 x g for 30 min.
Mice were sacrificed and tumors were harvested for Western blot analysis. All animal study was approved by the Institutional Animal Care and Use Committee of the Shanghai Institute of Materia Medica and strictly performed according to the institutional ethical guidelines on animal care.

[3] = test system: BaF3-EGFR^19del/T790M cells; experiment: Cell proliferation assay (CCK8/SRB); details: 72 h, read-out: IC50, antiproliferation activity
[4] = test system: BaF3-EGFR^L858R/T790M/C797S cells; experiment: Cell proliferation assay (CCK8/SRB); details: Ba/F3 EGFR-L858R, 72 h, read-out: IC50, antiproliferation activity
[5] = test system: EGFR phosphorylation in triple mutant BaF3 cells and PC-9-OR cells; experiment: Western blot of EGFR phosphorylation in EGFR^C797S triple mutant cells; type: cell-based; details: treated 2 h
BaF3 parental cells = experiment: Cell proliferation assay (CCK8/SRB); details: Mus musculus, BaF3, 72 h, read-out: IC50, antiproliferation activity
PC-9-OR cells [6] = experiment: Cell proliferation assay (CCK8/SRB); details: PC9-OR, 72 h, read-out: IC50, antiproliferation activity
[7] = test system: BaF3-EGFR^L858R/T790M cells; experiment: Cell proliferation assay (CCK8/SRB); details: Ba/F3 EGFR-L858R, 72 h, read-out: IC50, antiproliferation activity
NCI-H1975 cells = experiment: Cell proliferation assay (CCK8/SRB); details: Homo sapiens, NCI-H1975, 72 h, read-out: IC50, antiproliferation activity
EGFR^19del/T790M/C797S = EGFR^19del/T790M/C797S (Homo sapiens, UniProt P00533, C797S/DEL746-750/T790M); experiment: In vitro kinase assay (ELISA); type: biochemical; details: mean ± SD of three independent experiments, read-out: IC50, kinase inhibitory activity against EGFR^19del/T790M/C797S
Chain of EGFR^19del/T790M/C797S (P00533 with tags, fused parts or gaps DEL746-750/T790M/C797S limits assumed): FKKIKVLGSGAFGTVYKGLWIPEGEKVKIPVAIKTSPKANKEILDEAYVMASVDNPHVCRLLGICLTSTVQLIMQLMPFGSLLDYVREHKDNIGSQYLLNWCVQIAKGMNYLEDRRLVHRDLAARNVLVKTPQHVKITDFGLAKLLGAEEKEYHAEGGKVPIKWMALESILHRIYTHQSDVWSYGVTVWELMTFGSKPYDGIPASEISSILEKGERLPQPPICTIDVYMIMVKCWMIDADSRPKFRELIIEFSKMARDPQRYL

EGFR^L858R/T790M = EGFR^L858R/T790M (Homo sapiens, UniProt P00533, L858R/T790M); experiment: In vitro kinase assay (ELISA); type: biochemical; details: mean ± SD of three independent experiments, read-out: IC50, kinase inhibitory activity against EGFR^L858R/T790M
Chain of EGFR^L858R/T790M (P00533 712-979 T790M/L858R limits assumed): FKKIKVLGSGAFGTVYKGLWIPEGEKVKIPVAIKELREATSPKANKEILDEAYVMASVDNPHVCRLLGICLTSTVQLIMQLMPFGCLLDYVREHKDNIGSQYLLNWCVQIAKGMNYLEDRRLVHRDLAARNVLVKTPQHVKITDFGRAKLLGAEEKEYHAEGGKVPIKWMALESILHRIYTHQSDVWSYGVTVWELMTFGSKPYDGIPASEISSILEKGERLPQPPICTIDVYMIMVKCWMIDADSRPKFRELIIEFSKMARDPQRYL

[8] = test system: EGFR phosphorylation in BaF3-EGFR^L858R/T790M, BaF3-EGFR^19del/T790M and NCI-H1975 cells; experiment: Western blot of EGFR phosphorylation in EGFR^T790M double mutant cells; type: cell-based; details: treated 2 h
Protocol: (§1) Western blotting was performed as described previously. Cells were collected by trypsin and then lysed with SDS lysis buffer. Tumor tissues were homogenized in RIPA buffer on ice, followed by centrifugation at 12,000 x g for 30 min. The concentration of protein was measured with BCA protein assay kit (cat. no. 23227, Thermo Fisher Scientific). After heating at 100 °C for 15 min, protein samples were separated on 8-12% SDS-PAGE gels, and then transferred to nitrocellulose membranes (Life Technologies). Membranes were blocked in 5% nonfat milk-TBST and immunoblotted with primary antibodies against phospho-EGFR (Tyr1068; dilution, 1:500; cat. no. 2234L, CST), EGFR (dilution, 1:1000; cat. no. 4267S, CST), PARP (dilution, 1:1000; cat. no. 9542S, CST), caspase-3 (dilution, 1:1000; cat. no. 9662S, CST), cleaved caspase-3 (dilution, 1:1000; cat. no. 9664S, CST), phospho-Erk (Thr202/Tyr204; dilution, 1:1000; cat. no. 4370S, CST), Erk (dilution, 1:1000; cat. no. 4695S, CST) and β-actin (dilution, 1:20000; cat. no. 60008-1-Ig, Proteintech) at 4 °C overnight and then incubated with secondary antibodies (cat. no. 111-035-003, Jackson).

GSE-1 cells = experiment: Cell proliferation assay (CCK8/SRB); details: Homo sapiens, 72 h, read-out: IC50, antiproliferative activity
[9] = test system: cleaved caspase-3 and cleaved PARP in triple mutant BaF3 and PC-9-OR cells; experiment: Western blot of apoptosis-related proteins; type: cell-based
Protocol: as §1

EGFR^WT [10] = molecular target: EGFR^WT (Homo sapiens, UniProt P00533); experiment: In vitro kinase assay (ELISA)
Chain of EGFR^WT (Homo sapiens, UniProt P00533) (P00533 712-979 limits assumed): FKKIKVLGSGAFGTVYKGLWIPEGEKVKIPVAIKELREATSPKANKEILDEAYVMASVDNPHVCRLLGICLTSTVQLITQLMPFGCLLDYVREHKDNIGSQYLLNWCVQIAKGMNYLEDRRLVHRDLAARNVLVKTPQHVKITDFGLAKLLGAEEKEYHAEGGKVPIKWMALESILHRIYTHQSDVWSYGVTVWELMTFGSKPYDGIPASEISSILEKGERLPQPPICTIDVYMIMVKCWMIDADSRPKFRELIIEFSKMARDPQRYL

EGFR^WT [11] = experiment: In vitro kinase assay (ELISA); details: EGFR^C797S triple mutants versus EGFR^WT, kinase IC50
EGFR^L858R/T790M/C797S = EGFR^L858R/T790M/C797S (Homo sapiens, UniProt P00533, C797S/L858R/T790M); experiment: In vitro kinase assay (ELISA); type: biochemical; details: mean ± SD of three independent experiments, read-out: IC50, kinase inhibitory activity against EGFR^L858R/T790M/C797S
Chain of EGFR^L858R/T790M/C797S (P00533 712-979 T790M/C797S/L858R limits assumed): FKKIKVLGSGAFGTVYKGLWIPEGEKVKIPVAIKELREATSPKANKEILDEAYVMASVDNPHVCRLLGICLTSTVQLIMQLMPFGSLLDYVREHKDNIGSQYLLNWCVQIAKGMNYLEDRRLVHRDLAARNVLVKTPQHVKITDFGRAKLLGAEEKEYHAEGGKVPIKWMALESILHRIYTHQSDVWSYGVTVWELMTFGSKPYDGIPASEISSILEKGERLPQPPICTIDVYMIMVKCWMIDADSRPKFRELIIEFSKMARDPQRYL

MRC-9 cells = experiment: Cell proliferation assay (CCK8/SRB); details: Homo sapiens, MRC9, 72 h, read-out: IC50, antiproliferative activity
EGFR^19del/T790M = EGFR^19del/T790M (Homo sapiens, UniProt P00533, DEL746-750/T790M); experiment: In vitro kinase assay (ELISA); type: biochemical; details: mean ± SD of three independent experiments, read-out: IC50, kinase inhibitory activity against EGFR^19del/T790M
Chain of EGFR^19del/T790M (P00533 with tags, fused parts or gaps DEL746-750/T790M limits assumed): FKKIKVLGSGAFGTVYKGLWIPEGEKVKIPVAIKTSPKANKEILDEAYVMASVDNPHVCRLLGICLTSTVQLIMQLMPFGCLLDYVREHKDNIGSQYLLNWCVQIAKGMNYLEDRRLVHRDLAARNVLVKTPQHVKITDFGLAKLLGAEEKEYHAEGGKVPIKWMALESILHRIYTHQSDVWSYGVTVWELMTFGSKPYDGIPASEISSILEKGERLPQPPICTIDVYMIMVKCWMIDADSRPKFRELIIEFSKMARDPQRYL

[12] = test system: BaF3-EGFR^L858R/T790M/C797S cells; experiment: Cell apoptosis analysis (Annexin V-FITC, flow cytometry); type: cell-based; details: 48 h
Protocol: (§2) Then cells were collected and washed with PBS and measured by Annexin V-FITC Apoptosis detection kit (cat. no. A211-02, Vazyme Biotechnology). Signals were measured using FACS Calibur flow cytometer, and FlowJo software was used to analyze the data.

[13] = test system: BaF3-EGFR^19del/T790M/C797S cells; experiment: as above; type: cell-based; details: 3 μM, 48 h
Protocol: as §2

PC-9-OR cells [14] = experiment: as above; type: cell-based; details: 3 μM, 48 h
Protocol: as §2

[15] = triple mutant BaF3 cells and PC-9-OR cells

Structure (SMILES)	IC50 [1] [nM]	phosphorylation of EGFR and Erk in tumors (Western blot) [2]	IC50 [3] [nM]	IC50 [4] [nM]	IC50 (BaF3 parental cells) [nM]	IC50 (PC-9-OR cells [6]) [nM]	IC50 [7] [nM]	IC50 (NCI-H1975 cells) [nM]	EGFR phosphorylation (Western blot) [5, 15]	apoptosis rate ([12]; 3 μM)	also measured
C=CC(=O)Nc1cc(Nc2nccc(-c3cn(C)c4ccccc34)n2)c(OC)cc1N(C)CCN(C)C [AZD9291, Osimertinib, reference compound]	5930 ± 780	no obvious inhibitory activities of EGFR and Erk	[…]	5500 ± 330	3520 ± 920	6300	[…]	[…]			reduction of tumor growth compared to vehicle ([2]; 25 mg/kg, oral, once a day, BALB/c nude mice): did not show significant reduction of tumor growth; EGFR phosphorylation (Western blot) ([5]; 1 μM, all three EGFR^C797S triple mutant cells): failed to suppress
CCS(=O)(=O)n1cc(-c2nc(Nc3ccc(N4CCC(N5CCN(C)CC5)CC4)c(OC(C)C)c3)ncc2Cl)c2ccccc21 [HCD3514]	250	decreased phosphorylation of EGFR and the downstream signaling phosphorylation of Erk level	520	350	1310	480	660	490	potently and dose-dependently suppressed	98.27%	IC50 (EGFR^19del/T790M/C797S): 2 nM; IC50 (EGFR^L858R/T790M): 4.9 nM; EGFR phosphorylation (Western blot) ([8]; BaF3-EGFR^L858R/T790M and BaF3-EGFR^19del/T790M cells): dose-dependently suppressed; expression of phospho-EGFR (Western blot) ([8]; NCI-H1975 cells): down-regulated; IC50 (GSE-1 cells): 1040 nM; expression of cleaved caspase-3 and cleaved PARP (Western blot) [9]: dose-dependently up-regulated; tumor growth inhibition (TGI) ([2]; 50 mg/kg, oral, once a day, BALB/c nude mice): 22.53%; tumor growth inhibition (TGI) ([2]; 75 mg/kg, oral, once a day, BALB/c nude mice): 37.73%; tolerability, body weight throughout the study ([2]; 50 and 75 mg/kg, oral, once a day, BALB/c nude mice): well-tolerated, with body weight maintained throughout the study; tumor weight ([2]; 50 and 75 mg/kg, tumors harvested 2 h after last oral administration): reduced with the increased concentration; IC50 (EGFR^WT [10]): 156 ± 6.9 nM; selectivity over EGFR^WT (EGFR^WT [11]): more than 78 fold; IC50 (EGFR^L858R/T790M/C797S): 1 nM; IC50 (MRC-9 cells): 1030 nM; IC50 (EGFR^19del/T790M): 8.9 nM; apoptosis rate ([12]; 1 μM): 72.39%
COc1cc(N2CCC(N3CCN(C)CC3)CC2)ccc1Nc1ncc(Cl)c(Nc2ccccc2P(C)(C)=O)n1 [brigatinib]	310 ± 90			610 ± 210	4720 ± 2150	400			significantly reduced	around 80%	apoptosis rate [13]: around 80%; apoptosis rate (PC-9-OR cells [14]): around 80%
